How the values were obtained:
[1] = tested on: carrageenin-induced paw edema; experiment: Carrageenin Edema Test in Rats; format: in vivo, rat (male Wistar); settings: for Inhibition %, Anti-inflammatory activity: Table I; for ED50: Rattus norvegicus, po, P.O., 30 minutes before carrageenin, edema 3 hours after, rats, Table II, read-out: Anti-inflammatory activity, Carrageenin Edema Test ID50
Method: (1) Carrageenin Edema Test in Rats
Inflammation was introduced by injection of 0.05 ml. of 1% carrageenin suspension into the plantar tissue of rat hind paw subcutaneously, by the method of Winter et al. in Proc. Soc. Exp. Biol. Med. 111, 544 (1962). Male Wistar rats weighing 120 to 150 g. which had fasted overnight received the test drug in aqueous tragacanth suspension orally 30 minutes before the carrageenin injection.
Paw edema was measured volumetrically, just before and 3 hours after the carrageenin injection, and R (response) was obtained by the following equation: R=(V-Vo)/Vo, where Vo and V represented the paw volumes 0 and 3 hours after carrageenin injection, respectively.
(§1) In order to get the regression line of H (% inhibition of the response) on D (dose of test drug), H in each animal was calculated from the ratio of the response to the mean response in non-medicated group. Then, the regression line and ID50 were obtained by the method of least squares. The confidence limits of ID50 was calculated using Fieller's Equation.

inflammatory pain = experiment: Thermal Pain Test in Rats (analgesic activity on inflammatory pain); format: in vivo, rat (male Wistar); settings: for Inhibition %, Analgesic activity: Table I; for ED50: Rattus norvegicus, po, P.O., mean at 1 and 2 hours after drug, rats, Table II, read-out: Analgesic activity, Thermal Pain Test ID50
Method: II. ANALGESIC ACTIVITY ON INFLAMMATORY PAIN
Thermal Pain Test in Rats
The test was conducted according to the method reported by Y. Iizuka and K. Tanaka in Folia Pharmacol. Japan, 70, 697 (1974).
Under ether anesthesia, male Wistar rat of 5-7 weeks old received a standard heat injury at the hind paw by dipping it in hot water (57° C., 6 seconds). More than 1 hour later, the pain reaction could be evoked easily by another stimulatory heat (40° C., 5 seconds). Namely immediately after this treatment, the animal used to lift up the injured paw, presumably to avoid further pain which might be caused by touching it with the wire-netting of the cage.
Thus, the sum of duration time of the paw-lifting behavior was counted over a 30 seconds period and this was used as "pain reaction time." Drug was given orally 2 hours after the first application of heat and the mean value of "pain reaction time" at 1 and 2 hours after drug administration was used as the response.
as §1

LPS-induced fever = experiment: LPS-induced Fever Test in Guinea Pigs (antipyretic activity); format: in vivo, guinea pig (female Hartley); settings: Cavia porcellus, po, P.O., 1.5 hours after LPS, mean at 1 and 2 hours after drug, Table II, read-out: Antipyretic activity, LPS-induced Fever Test ID50
Method: III. ANTIPYRETIC ACTIVITY
LPS-induced Fever Test in Guinea Pigs
Antipyretic activity was determined by a modified method of Kobayashi and Takagi in Jap. J. Pharmacol. 18, 80 (1968). Female Hartley guinea pigs weighing about 300 g. had fasted overnight and the fever was induced by injecting 1.0 μg/ml/kg LPS (product of Difco Laboratories, U.S.A., Lipo polysaccharide from Escherichia coli).
One hour after the injection, rectal temperature was measured and only the animals with fever between 0.8° C. and 1.2° C. were used for experiment.
Drugs were administered orally 1.5 hours after LPS injection, and the mean value of rectal temperature of each animal 1 and 2 hours after drug administration was used as the response.
as §1

[2] = tested on: adjuvant-induced arthritis; experiment: Adjuvant-induced Arthritis Test in Rats (Therapeutic Effect on Established Arthritis); format: in vivo, rat (female Lewis); settings: Rattus norvegicus, po, 168 h, P.O., twice a day, 7 days (day 18 to 25), Table II, read-out: Anti-inflammatory activity, Adjuvant Arthritis Test ID50
Method: (2) Adjuvant-induced Arthritis Test in Rats
(Therapeutic Effect on Established Arthritis)
Female Lewis rats of 7-8 weeks old were injected intradermally in the hind paw with 0.05 mg. of heat-killed Mycobacterium butyricum in 0.05 ml. of liquid paraffin. Eighteen days after adjuvant injection, the well-established arthritic animals were selected and subjected to 7 days therapy with drug (twice a day orally). As the response, the volume of injected foot was measured by water displacement method at the beginning (day 18) and the end (day 25) of the therapy period.
as §1
In adjuvant arthritis, however, the ratio (RR) of responses after/before medication period was calculated first, where the response meant the swelled foot volume of the injected foot. Then, H in each animal was calculated from the ratio of RR to RRc, where RRc represented the mean RR is non-medicated group.

Row | SMILES | Inhibition %, Anti-inflammatory activity ([1]; 6.3 mg/kg (P.O.)) [%] | Inhibition %, Analgesic activity (inflammatory pain; 6.3 mg/kg (P.O.)) [%] | ED50 [1] [mg/kg] | ED50 (inflammatory pain) [mg/kg] | ED50 (LPS-induced fever) [mg/kg] | ED50 [2] [mg/kg] | Inhibition %, Anti-inflammatory activity ([1]; (Control) 25 mg/kg (P.O.)) [%] | Inhibition %, Analgesic activity (inflammatory pain; (Control) 19 mg/kg (P.O.)) [%]
1 | CCOC(=O)C(C)c1ccc(C=C2CCCC2=O)cc1 (stereo not shown) [Ethyl 2-[4-(2-oxo-1-cyclopentylidenemethyl)phenyl]propionate] | 85.0 | 50.5 | – | – | – | – | – | –
2 | CC(C)Cc1ccc(C(C)C(=O)O)cc1 (stereo not shown) [Ibuprofen, reference compound] | – | – | 10.8 | 17.8 | 1.26 | 104 | – | –
3 | CCCCC1C(=O)N(c2ccccc2)N(c2ccccc2)C1=O [Phenylbutazone, reference compound] | – | – | – | – | – | – | 30.6 | 37
4 | CC(C(=O)O)c1ccc(C=C2CCCC2=O)cc1 (stereo not shown) [2-[4-(2-Oxo-1-cyclopentylidenemethyl)phenyl]propionic acid] | 76.4 | 77.4 | 1.4 | 1.3 | 0.83 | 1.2 | – | –
5 | CCOC(=O)C(C)c1ccc(C=C2CCCCC2=O)cc1 (stereo not shown) [Ethyl 2-[4-(2-oxo-1-cyclohexylidenemethyl)phenyl]propionate] | 72.7 | 59.2 | – | – | – | – | – | –
6 | CC(C(=O)O)c1ccc(C=C2CCCCC2=O)cc1 (stereo not shown) [2-[4-(2-Oxo-1-cyclohexylidenemethyl)phenyl]propionic acid] | 75.0 | 86.8 | 1.2 | 1.8 | 1.46 | 0.2 | – | –

— patent US4365076A, “Process for the preparation of cycloalkylidenemethylphenylacetic acid derivatives” (Sankyo Company Limited, priority 1977, dated 1982)
